Data on three molecules can be found in patent publication US20220331415A1, “IMMUNOACTIVE MICROPARTICLES AND USES THEREOF” (The Regents of the University of California, priority 2019, published 2022).

In one series the target is TGF-β receptor. To be noted: TGF-β inhibitors; cited from earlier work.
Series [1] deals with Treg formation (Foxp3+ T cells). Put plainly: Inhibition of Treg formation: Foxp3 expression in naïve T cells co-cultured with microparticles, flow cytometry. To be noted: same concentration of TGF-β inhibitors, galunisertib compared with SB505124, after 4 days. It counts as cell-based. From the text: FIG. 16 further describes TGF-β inhibitors galunisertib (LY2157299) and SB505124 (top). […] Naïve T cells were co-cultured with microparticles and flow cytometry is being used after 4 days to evaluate the intracellular Foxp3 expression.
Thus, in one embodiment, an inhibitor or blocker of TGF-β is included or incorporated into the microparticles of the invention. A TGF-β inhibitor (TGF-βi) such as a TGF-β receptor inhibitor may be used. Non-limiting examples include galinusertib (LY2157299) or SB505124. […] This TGFβ inhibitor used for further studies as described in FIGS. 16-20.
To efficiently stimulate the proliferation of cytotoxic T cells, the microparticles of the invention should suppress formation of regulatory T cells (Tregs) from CD4+ cells attracted to the microparticles. Sustained presence of TGF-β inhibitors can suppress Tregs formation. FIG. 15 and FIG. 16 depict two TGF-β inhibitors used here to show the suppression effect. […] Incorporation of β-cyclodextrin was used to increase the affinity and loading of Galunisertib to microparticles (FIG. 17). β-cyclodextrin was conjugated to Alginate or Alginate-Heparin polymers.
On the technique in general: Flow cytometry measures light scatter and fluorescence of single cells or particles in a stream.

The conditions of series [2]: compared to IL-2, cited from earlier work.

Usually IC50 stands for the concentration at which inhibition is half-maximal. `Cc1cccc(-c2nn3c(c2-c2ccnc4ccc(C(N)=O)cc24)CCC3)n1` [galunisertib]: the half-inhibitory concentration (IC50) at TGF-β receptor was 56 nM. Moreover, the figures for the “Treg suppression (Foxp3 expression, number of Foxp3+ cells)” value in series [1] and in series [1] (listed as Galunisertib) were “stronger Treg suppression” and “higher degree of Tregs suppression”, respectively.
Take `Cc1cccc(-c2[nH]c(C(C)(C)C)nc2-c2ccc3c(c2)OCO3)n1` [SB505124]: the IC50 at TGF-β receptor is 129 nM.

B1: IL-2 superkine: artificial variant of IL-2 containing mutations L80F/R81D/L85V/I86V/I92F (SEQ ID NO: 3) (protein)
chain: MGEFAPTSSSTKKTQLQLEHLLLDLQMILNGINNYKNPKLTRMLTFKFYMPKKATELKHLQCLEEELKPLEEVLNLAQSKNFHFDPRDVVSNINVFVLELKGSETTFMCEYADETATIVEFLNRWITFCQSIISTLTH
Take B1: in series [2], the “expansion of cytotoxic T cells” value is on record as “superior expansion”. Besides, the toxicity result in series [2] (lower Treg expansion, reduced pulmonary edema) was “proportionally less toxicity”. In addition, in series [2] (in vivo), the antitumor responses result is recorded as “improved antitumor responses”.
